From ChEMBL document CHEMBL5537152, “Targeted Degradation of PCSK9 In Vivo by Autophagy-Tethering Compounds” (J Med Chem, 2024)

Tests used:
Mus musculus [1] = assay: Synergistic antiatherosclerotic activity in hypercholesterolemic ApoE-/- mouse model assessed as decrease in plasma LDL-C level at 15 mg/kg, ip administered daily for 3 weeks; type: functional; design: scale not given: the % may be the effect or the level left
Mus musculus [2] = assay: Antiatherosclerotic activity in hypercholesterolemic ApoE-/- mouse model assessed as decrease in plasma LDL-C level at 15 mg/kg/day, ip measured after 21 days relative to control; type: functional; conditions: time 21 day

Compound `CCC(C)(C)C(=O)O[C@H]1C[C@@H](C)C=C2C=C[C@H](C)[C@H](CC[C@@H]3C[C@@H](O)CC(=O)O3)[C@H]21` [SIMVASTATIN] has an Activity (Mus musculus [1]) of 23.59% and an Efficacy (Mus musculus [2]) of 23.59%.
